Assay results: patent US9872493B2, “Method for promoting plant growth” (SUMITOMO CHEMICAL COMPANY, LIMITED, priority 2012, dated 2018)
Read-outs that look alike come from different tables or passages of the source.

Columns and labels:
[1] = tested on: Rice (Variety: Nipponbare); assay: Test for evaluating promotion of root growth by hydroponics of rice (Test Examples 1-3); type: in vivo
Protocol: Rice (Variety: Nipponbare)
(§1) A DMSO solution, which contained one of the compounds 14, 18, 21, 23, 26, 28, 29, 30, 35, 36, 37, 39 and 40 of the present invention at a concentration of 100,000 ppm, was added to Hoagland hydroponic solution (Hoagland and Arnon, California Agricultural Experiment Station 1950 Circular 347 pp. 34) of ¼-fold concentration at a volume ratio of 1/10,000. In this manner, hydroponic solutions containing one of the compounds 14, 18, 21, 23, 26, 28, 29, 30, 35, 36, 37, 39 and 40 of the present invention at 10 ppm were prepared respectively. As an untreated control plot, a hydroponic solution obtained by adding DMSO to Hoagland hydroponic solution of ¼-fold concentration at a volume ratio of 1/10,000 was used.
(§2) Rice seeds were soaked in a 1% aqueous sodium hypochlorite solution for 10 minutes, then soaked in a 70% ethanol solution for surface sterilization, and then washed with distilled water. The sterilized seeds were soaked in a hydroponic solution containing the test compound described above at 10 ppm and incubated in a dark place for 3 days at 28° C. to perform treatment for hastening germination.
(§3) Thereafter, 30 ml of hydroponic solution containing the test compound at 10 ppm was dispensed in a plastic tube (diameter of 20 mm×height of 113 mm) of which the side was covered with cardboard to block light. A float prepared using a styrene board and vinyl mesh was floated, and the rice seeds that had undergone the treatment for hastening germination were placed on the float on the surface of the hydroponic solution. The seeds were cultivated for 3 days at 26° C., an illuminance of 4,000 lux of the top surface of the tube, a humidity of 50%, and a day length of 16 hours.
The nursery plants of rice obtained after cultivating were measured in terms of the length of seminal root by using WinRHIZO system (manufactured by Regent Instruments Inc). For each test plot, an average of the measured values of the seminal root of 4 or 5 individuals were determined.
as §1, with “compounds 7, 8, 9, 10, 12, 17, 20,” for “compounds 14, 18,”, “21, 25, 27,” for “21, 23, 26,”, “30, 34,” for “30,”, “37, 38,” for “37,”, “of 10,000” for “of 100,000”, “at 1” for “at 10”
as §2, with “at 1” for “at 10”
as §3, with “1” for “10”
The nursery plants of rice obtained after cultivation were measured in terms of the length of seminal root by using WinRHIZO system (manufactured by Regent Instruments Inc). […]

[2] = tested on: Nicotiana benthamiana; assay: Test for evaluating growth promotion under low-temperature stress by hydroponics of Nicotiana benthamiana (Test Examples 4-6); type: in vivo; conditions: read-out: value of a relative leaf area (equation (1)); for relative green leaf area after low-temperature stress at 0.1 ppm: compound at 0.1 ppm; for relative green leaf area after low-temperature stress at 10 ppm: compound at 10 ppm
Protocol: A DMSO solution, which contained one of the compounds 5, 14, 22, 23, 24, 25, 26, 28, 30, 31, 32, 33, 34, 35, 38, 39 and 40 of the present invention at a concentration of 10,000 ppm, was prepared. The DMSO solution of the compound of the present invention was added at a volume ratio of 1/1,000 to the Murashige•Scoog medium of a ½-fold concentration (a medium containing 2.3 g of mixed salts (manufactured by Wako Pure Chemical Industries, Ltd.), 200 mg of Myo-inositol (manufactured by Sigma-Aldrich Co. LLC.), 2 mg of nicotinic acid (manufactured by Wako Pure Chemical Industries, Ltd.), 2 mg of pyridoxine hydrochloride (manufactured by Wako Pure Chemical Industries, Ltd.), 20 mg of thiamine hydrochloride (manufactured by Wako Pure Chemical Industries, Ltd.), 20 g of sucrose (manufactured by Wako Pure Chemical Industries, Ltd.), and 1 g of MES (manufactured by DOJINDO LABORATORIES) per 1 L of water and having pH adjusted to 5.8), thereby preparing a medium containing the compound of the present invention at a concentration of 10 ppm.
Seeds of Nicotiana benthamiana were seeded in the 5 μL of the medium and cultured overnight at 22° C. Thereafter, 45 μL of the medium containing the compound of the present invention at a concentration of 10 ppm was added thereto, and the seeds are cultivated for 7 days at 22° C., an illuminance of 4,000 lux, and a day length of 16 hours, thereby the nursery plants raised from the Nicotiana benthamiana were treated with the compound.
Moreover, instead of the above medium a test plot, which was obtained by performing the same treatment by using a medium prepared by adding DMSO to the Murashige•Scoog medium of ½-fold concentration at a volume ratio of 1/1,000, was used as a control plot not treated with the compound.
The nursery plants of the Nicotiana benthamiana treated with the compound were subjected to low-temperature treatment by being cultivated for 7 days at 1.5±1.0° C., an illuminance of 2,000 lux, and a day length of 16 hours.
The nursery plants of the Nicotiana benthamiana having undergone the low-temperature stress treatment were cultivated for 3 days at 22° C., an illuminance of 4,000 lux, and a day length of 16 hours. Thereafter, the area of green leaf was quantified by Scanalyzer HTS (manufactured by LemnaTec GmbH). Moreover, the value of the control plot not treated with the compound that had not yet been subjected to the low-temperature stress treatment was measured in the same manner. A value of a relative leaf area was calculated based on the following equation (1), and if the value of a relative leaf area was 5 or greater, the compound was evaluated to have a mitigating effect. As a result of the evaluation, it was confirmed that when the plant was treated with one of the compounds 5, 14, 22, 23, 24, 25, 26, 28, 30, 31, 32, 33, 34, 35, 38, 39 and 40 of the present invention at 10 ppm, the value of a relative leaf area was 5 or greater, compared to the area of green leaf of the control plot not treated with compound. Accordingly, it was confirmed that the treatment using the compound of the present invention brings about a growth promotion effect. Relative leaf area=100*(a green area of a plot treated with the compound of the present invention−a green area of a control plot not treated with the compound of the present invention)/(a green area of a control plot not treated with the compound of the present invention that has not yet been subjected to low-temperature stress treatment−a green area of a control plot not treated with the compound of the present invention) Equation (1): […]
A DMSO solution, which contained one of the compounds 6, 7, 8, 11, 12, 15, 19, 23, 24, 25, 28, 30, 31, 33, 34, 36, 37, 38 and 39 of the present invention at a concentration of 1,000 ppm, was prepared. […]

[3] = 7 days at 1.5±1.0° C. low-temperature stress, then 3 days at 22° C., green leaf area vs untreated control
[4] = compound at 1 ppm, 7 days at 1.5±1.0° C. low-temperature stress, then 3 days at 22° C., green leaf area vs untreated control

| Compound | relative green leaf area after low-temperature stress at 0.1 ppm [2, 3] [%] | relative green leaf area after low-temperature stress at 1 ppm [2, 4] [%] | length of seminal root compared with the untreated control plot (in words) ([1]; 1 ppm) | further results |
| --- | --- | --- | --- | --- |
| O=C(O)c1cccc2sc(C(F)(F)F)cc12 [Compound 1, 2-trifluoromethylbenzo[b]thiophene-4-carboxylic acid] |  |  |  | length of seminal root compared with the untreated control plot (in words) ([1]; 0.1 ppm): obviously longer |
| COC(=O)c1cccc2sc(C(F)(F)F)cc12 [Compound 2, methyl 2-trifluoromethylbenzo[b]thiophene-4-carboxylate] | ≥ 5 |  |  |  |
| NC(=O)c1cccc2sc(C(F)(F)F)cc12 [Compound 3, 2-trifluoromethylbenzo[b]thiophene-4-carboxamide] | ≥ 5 |  |  | length of seminal root compared with the untreated control plot (in words) ([1]; 0.1 ppm): obviously longer |
| COC(=O)c1ccc2sccc2c1 [Compound 5, methyl benzo[b]thiophene-5-carboxylate] |  |  |  | relative green leaf area after low-temperature stress at 10 ppm [2, 3]: ≥ 5% |
| O=C(O)c1cccc2ccsc12 [Compound 6, benzo[b]thiophene-7-carboxylic acid] |  | ≥ 5 |  | length of seminal root compared with the untreated control plot (in words) ([1]; 0.1 ppm): obviously longer |
| NC(=O)c1cccc2ccsc12 [Compound 7, benzo[b]thiophene-7-carboxamide] |  | ≥ 5 | obviously longer |  |
| COC(=O)c1cccc2ccsc12 [Compound 8, methyl benzo[b]thiophene-7-carboxylate] |  | ≥ 5 | obviously longer |  |
| O=C(O)c1cccc2cc(C(F)(F)F)sc12 [Compound 9, 2-trifluoromethylbenzo[b]thiophene-7-carboxylic acid] | ≥ 5 |  | obviously longer |  |
| COC(=O)c1cccc2cc(C(F)(F)F)sc12 [Compound 10, methyl 2-trifluoromethylbenzo[b]thiophene-7-carboxylate] | ≥ 5 |  | obviously longer |  |
| NC(=O)c1cccc2cc(C(F)(F)F)sc12 [Compound 11, 2-trifluoromethylbenzo[b]thiophene-7-carboxamide] |  |  |  | relative green leaf area after low-temperature stress at 1 ppm [2]: ≥ 5% |
| COC(=O)c1csc2ccccc12 [Compound 12, methyl benzo[b]thiophene-3-carboxylate] |  | ≥ 5 | obviously longer |  |
| O=C(O)c1csc2ccc(C(F)(F)F)cc12 [Compound 13, 5-trifluoromethylbenzo[b]thiophene-3-carboxylic acid] | ≥ 5 |  |  | length of seminal root compared with the untreated control plot (in words) ([1]; 0.1 ppm): obviously longer |
| COC(=O)c1csc2ccc(C(F)(F)F)cc12 [Compound 14, methyl 5-trifluoromethylbenzo[b]thiophene-3-carboxylate] |  |  |  | length of seminal root compared with the untreated control plot (in words) ([1]; 10 ppm): obviously longer; relative green leaf area after low-temperature stress at 10 ppm [2, 3]: ≥ 5% |
| O=C(O)c1c(C(F)(F)F)sc2ccccc12 [Compound 15, 2-trifluoromethylbenzo[b]thiophene-3-carboxylic acid] |  | ≥ 5 |  | length of seminal root compared with the untreated control plot (in words) ([1]; 0.1 ppm): obviously longer |
| NC(=O)c1c(C(F)(F)F)sc2ccccc12 [Compound 17, 2-trifluoromethylbenzo[b]thiophene-3-carboxamide] |  |  | obviously longer |  |
| COC(=O)c1c(C(F)(F)F)sc2c(C(=O)OC)cccc12 [Compound 18, dimethyl 2-trifluoromethylbenzo[b]thiophene-3,7-dicarboxylate] |  |  |  | length of seminal root compared with the untreated control plot (in words) ([1]; 10 ppm): obviously longer |
| CCOC(=O)c1c(C(F)(F)F)sc2ccccc12 [Compound 22] | ≥ 5 |  |  | relative green leaf area after low-temperature stress at 10 ppm [2, 3]: ≥ 5% |
| CNC(=O)c1c(C(F)(F)F)sc2ccccc12 [Compound 24] |  | ≥ 5 |  | relative green leaf area after low-temperature stress at 10 ppm [2, 3]: ≥ 5% |
| O=C(O)c1csc2cc(C(F)(F)F)ccc12 [Compound 27] |  |  | obviously longer | length of seminal root compared with the untreated control plot (in words) ([1]; 0.1 ppm): obviously longer |
| O=C(Nc1ccccc1)c1csc2cc(C(F)(F)F)ccc12 [Compound 32] | ≥ 5 |  |  | relative green leaf area after low-temperature stress at 10 ppm [2, 3]: ≥ 5% |
| O=C(NCc1ccccc1)c1csc2cc(C(F)(F)F)ccc12 [Compound 33] | ≥ 5 | ≥ 5 |  | relative green leaf area after low-temperature stress at 10 ppm [2, 3]: ≥ 5% |
